The record followed here is patent publication US20260070945A1, “MACROCYCLIC IMMUNOMODULATORS” (Bristol-Myers Squibb Company, priority 2022, published 2026).

Structures are written as SMILES. *1 amine or outer side, *2 acyl side, *3 side chain or, on linkers, in order; H or OH if unused. Where a SMILES comes first, the peptide text is derived from it. Bridges are numbered along the chain shown (N, C = ends). [ ]: non-standard residue; d: D form. The star is where a group is joined. ξ: configuration not given here. X10 = O=C(O)COc1ccc(C[C@H](CC(=O)C[*:2])C(=O)[*:1])cc1; Phe(3-CF3) = N[C@@H](Cc1cccc(C(F)(F)F)c1)C(=O)O; Phe(4-COOH) = N[C@@H](Cc1ccc(C(=O)O)cc1)C(=O)O; d(γGlu) = O=C(O)[C@@H](CCC(=O)[*:2])N[*:1]; Bip = N[C@@H](Cc1ccc(-c2ccccc2)cc1)C(=O)O; NH(CH2)14COOH = O=C(O)CCCCCCCCCCCCCCN*; γGlu = O=C(O)[C@H](CCC(=O)[*:2])N[*:1]; NH(CH2)12COOH = O=C(O)CCCCCCCCCCCCN*; Val(3-OH) = CC(C)(O)[C@H](N)C(=O)O; 2Thi = N[C@@H](Cc1cccs1)C(=O)O; Cha = N[C@@H](CC1CCCCC1)C(=O)O; Ile(3ξ) = CCC(C)[C@H](N)C(=O)O; X9 = NC(=O)CCCCCCCCCCCCCCN*; Carboxymethyl = O=C(O)C*; NMeA = CN[C@@H](C)C(=O)O; Dab = NCC[C@H](N)C(=O)O; AEEA = NCCOCCOCC(=O)O

T1 sequence (Q15116 25-288): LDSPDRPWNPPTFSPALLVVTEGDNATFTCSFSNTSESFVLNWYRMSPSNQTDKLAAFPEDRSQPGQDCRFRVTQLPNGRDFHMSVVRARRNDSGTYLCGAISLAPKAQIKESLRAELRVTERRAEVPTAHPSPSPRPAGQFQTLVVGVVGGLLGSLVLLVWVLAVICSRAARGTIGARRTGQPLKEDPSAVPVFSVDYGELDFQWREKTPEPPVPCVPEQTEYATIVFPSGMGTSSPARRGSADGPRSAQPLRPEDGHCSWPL

This test concerns the target T1, PD-1/PD-L1 interaction (PE-labeled human PD-L1-Ig binding to Jurkat cell line over-expressing human PD-1) (Homo sapiens, UniProt Q15116).
T1 construct: expressed in transfected cells; host or cells: Jurkat
Description: Jurkat-PD-1 Cell Binding High-Content Screening Assay (CBA). Particulars: PE-labeled PD-L1-Ig 20 nM final, Jurkat-hPD-1 cells; read-out: Jurkat HPD1 PDL1 IC50. In short, it runs like this:
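Read-out: high-content imaging of cell-bound PE fluorescence, with Hoechst 33342 nuclear counterstain after paraformaldehyde fixation. Before labeled ligand (20 nM final, 1 h) was added, compound sat on the cells for 2 h at 37 °C in DMEM/10% FCS.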
Broadly, the IC50 is the concentration at which inhibition is half-maximal. With `CC(C)C[C@H]1NC(=O)[C@H](C)N(C)C(=O)[C@H](CCC(N)=O)NC(=O)[C@H](Cc2ccc(-c3ccccc3)cc2)NC(=O)[C@H](Cc2ccc(OCC(=O)O)cc2)NC(=O)[C@H](Cc2cccc(C(F)(F)F)c2)NC(=O)[C@H](CC(=O)O)NC(=O)[C@H](Cc2ccc(OCC(=O)O)cc2)NC(=O)[C@H](Cc2ccc(OCC(=O)O)cc2)NC(=O)CSC[C@@H](C(=O)N[C@@H](CCN)C(=O)NCCOCCOCC(=O)NCCOCCOCC(=O)N[C@H](CCC(=O)NCCCCCCCCCCCCCCC(=O)O)C(=O)O)NC(=O)[C@H](Cc2cnc[nH]2)NC(=O)[C@H](C(C)(C)O)NC(=O)[C@H](CC2CCCCC2)NC(=O)[C@H](CCN)NC1=O` [Example 2627] ({CH2CO}-Y(Carboxymethyl)Y(Carboxymethyl)D[Phe(3-CF3)]Y(Carboxymethyl)[Bip]Q[NMeA][dL][Dab][Cha][Val(3-OH)]HC[Dab][AEEA][AEEA][dE](NH(CH2)14COOH)-OH; thioether N-14), the IC50 stood at 0.164 µM.
In the case of `CC(C)C[C@H]1NC(=O)[C@H](C)N(C)C(=O)[C@H](CCC(N)=O)NC(=O)[C@H](Cc2ccc(-c3ccccc3)cc2)NC(=O)[C@H](Cc2ccc(OCC(=O)O)cc2)NC(=O)[C@H](Cc2cccc(C(F)(F)F)c2)NC(=O)[C@H](CC(=O)O)NC(=O)[C@H](Cc2ccc(OCC(=O)O)cc2)NC(=O)[C@H](C)NC(=O)CSC[C@@H](C(=O)N[C@@H](CCN)C(=O)NCCOCCOCC(=O)NCCOCCOCC(=O)N[C@H](CCC(=O)NCCCCCCCCCCCCCCC(=O)O)C(=O)O)NC(=O)[C@H](Cc2cnc[nH]2)NC(=O)[C@H](C(C)(C)O)NC(=O)[C@H](CC2CCCCC2)NC(=O)[C@H](CCN)NC1=O` [Example 2628] ({CH2CO}-AY(Carboxymethyl)D[Phe(3-CF3)]Y(Carboxymethyl)[Bip]Q[NMeA][dL][Dab][Cha][Val(3-OH)]HC[Dab][AEEA][AEEA][dE](NH(CH2)14COOH)-OH; thioether N-14), the concentration for half-maximal inhibition (IC50) is 0.247 µM.
Regarding `CC(C)C[C@H]1NC(=O)[C@H](C)N(C)C(=O)[C@H](CCC(N)=O)NC(=O)[C@H](Cc2ccc(-c3ccccc3)cc2)NC(=O)[C@H](Cc2ccc(OCC(=O)O)cc2)NC(=O)[C@H](Cc2cccc(C(F)(F)F)c2)NC(=O)[C@H](CC(=O)O)NC(=O)[C@H](Cc2ccc(OCC(=O)O)cc2)NC(=O)[C@H](C)NC(=O)CSC[C@@H](C(=O)N[C@@H](CCN)C(=O)NCCCCCCCCCCCCC(=O)O)NC(=O)[C@H](CCC(=O)O)NC(=O)[C@H](C(C)(C)O)NC(=O)[C@H](CC2CCCCC2)NC(=O)[C@H](CCN)NC1=O` [Example 2629] ({CH2CO}-AY(Carboxymethyl)D[Phe(3-CF3)]Y(Carboxymethyl)[Bip]Q[NMeA][dL][Dab][Cha][Val(3-OH)]EC[Dab]-{NH(CH2)12COOH}; thioether N-14), the IC50 amounted to 0.0306 µM.
On to `CC(C)C[C@H]1NC(=O)[C@H](C)N(C)C(=O)[C@H](CCC(N)=O)NC(=O)[C@H](Cc2ccc(-c3ccccc3)cc2)NC(=O)[C@H](Cc2ccc(OCC(=O)O)cc2)NC(=O)[C@H](Cc2cccc(C(F)(F)F)c2)NC(=O)[C@H](CC(=O)O)NC(=O)[C@H](Cc2ccc(OCC(=O)O)cc2)NC(=O)[C@H](Cc2cnc[nH]2)NC(=O)CSC[C@@H](C(=O)N[C@@H](CCN)C(=O)NCCCCCCCCCCCCC(=O)O)NC(=O)[C@H](CCC(=O)O)NC(=O)[C@H](C(C)(C)O)NC(=O)[C@H](CC2CCCCC2)NC(=O)[C@H](CCN)NC1=O` [Example 2630] ({CH2CO}-HY(Carboxymethyl)D[Phe(3-CF3)]Y(Carboxymethyl)[Bip]Q[NMeA][dL][Dab][Cha][Val(3-OH)]EC[Dab]-{NH(CH2)12COOH}; thioether N-14), for which the IC50 was determined as 0.0095 µM.
The same measure for `CCC(C)[C@@H]1NC(=O)[C@H](Cc2ccc(-c3ccccc3)cc2)NC(=O)[C@H](C(C)C)NC(=O)[C@H](Cc2c[nH]c3ccccc23)NC(=O)[C@H](CC(=O)O)NC(=O)[C@H](Cc2ccc(C(=O)O)cc2)NC(=O)[C@H](Cc2cnc[nH]2)NC(=O)CSC[C@@H](C(=O)N[C@@H](CCN)C(=O)NCCOCCOCC(=O)NCCCCCCCCCCCCC(=O)O)NC(=O)[C@H](CCC(=O)O)NC(=O)[C@H](C(C)(C)O)NC(=O)[C@H](CC2CCCCC2)NC(=O)[C@H](CCN)NC(=O)[C@@H](CC(C)C)NC(=O)[C@H](C)N(C)C1=O` (stereo partly drawn) [Example 2631] ({CH2CO}-H[Phe(4-COOH)]DWV[Bip][Ile(3ξ)][NMeA][dL][Dab][Cha][Val(3-OH)]EC[Dab][AEEA]-{NH(CH2)12COOH}; thioether N-14): 0.0155 µM; for `CCC(C)[C@@H]1NC(=O)[C@H](Cc2ccc(-c3ccccc3)cc2)NC(=O)[C@H](C(C)C)NC(=O)[C@H](Cc2c[nH]c3ccccc23)NC(=O)[C@H](CC(=O)O)NC(=O)[C@H](Cc2ccc(C(=O)O)cc2)NC(=O)[C@H](Cc2cnc[nH]2)NC(=O)CSC[C@@H](C(=O)N[C@@H](CCN)C(=O)N[C@@H](CCC(=O)NCCCCCCCCCCCCC(=O)O)C(=O)O)NC(=O)[C@H](CCC(=O)O)NC(=O)[C@H](C(C)(C)O)NC(=O)[C@H](CC2CCCCC2)NC(=O)[C@H](CCN)NC(=O)[C@@H](CC(C)C)NC(=O)[C@H](C)N(C)C1=O` (stereo partly drawn) [Example 2632] ({CH2CO}-H[Phe(4-COOH)]DWV[Bip][Ile(3ξ)][NMeA][dL][Dab][Cha][Val(3-OH)]EC[Dab]E(NH(CH2)12COOH)-OH; thioether N-14): 0.0249 µM.
Consider `CCC(C)[C@@H]1NC(=O)[C@H](Cc2ccc(-c3ccccc3)cc2)NC(=O)[C@H](C(C)C)NC(=O)[C@H](Cc2c[nH]c3ccccc23)NC(=O)[C@H](CC(=O)O)NC(=O)[C@H](Cc2ccc(C(=O)O)cc2)NC(=O)[C@H](Cc2cnc[nH]2)NC(=O)CSC[C@@H](C(=O)N[C@@H](CCN)C(=O)NCCOCCOCC(=O)N[C@@H](CCC(=O)NCCCCCCCCCCCCCCC(=O)O)C(=O)O)NC(=O)[C@H](CCC(=O)O)NC(=O)[C@H](C(C)(C)O)NC(=O)[C@H](CC2CCCCC2)NC(=O)[C@H](CCN)NC(=O)[C@@H](CC(C)C)NC(=O)[C@H](C)N(C)C1=O` (stereo partly drawn) [Example 2633] ({CH2CO}-H[Phe(4-COOH)]DWV[Bip][Ile(3ξ)][NMeA][dL][Dab][Cha][Val(3-OH)]EC[Dab][AEEA]E(NH(CH2)14COOH)-OH; thioether N-14), for which the half-inhibitory concentration (IC50) came to 0.207 µM.
The result for `CCC(C)[C@@H]1NC(=O)[C@H](Cc2ccc(-c3ccccc3)cc2)NC(=O)[C@H](C(C)C)NC(=O)[C@H](Cc2c[nH]c3ccccc23)NC(=O)[C@H](CC(=O)O)NC(=O)[C@H](Cc2ccc(C(=O)O)cc2)NC(=O)[C@H](Cc2cnc[nH]2)NC(=O)CSC[C@@H](C(=O)N[C@@H](CCN)C(=O)NCCOCCOCC(=O)N[C@@H](CCC(=O)N[C@H](CCC(=O)NCCCCCCCCCCCCCCC(=O)O)C(=O)O)C(=O)O)NC(=O)[C@H](CCC(=O)O)NC(=O)[C@H](C(C)(C)O)NC(=O)[C@H](CC2CCCCC2)NC(=O)[C@H](CCN)NC(=O)[C@@H](CC(C)C)NC(=O)[C@H](C)N(C)C1=O` (stereo partly drawn) [Example 2634] ({CH2CO}-H[Phe(4-COOH)]DWV[Bip][Ile(3ξ)][NMeA][dL][Dab][Cha][Val(3-OH)]EC[Dab][AEEA][γGlu][d(γGlu)]-{NH(CH2)14COOH}; thioether N-14) reads 0.188 µM.
With `CCC(C)[C@@H]1NC(=O)[C@H](Cc2ccc(-c3ccccc3)cc2)NC(=O)[C@H](C(C)C)NC(=O)[C@H](Cc2c[nH]c3ccccc23)NC(=O)[C@H](CC(=O)O)NC(=O)[C@H](Cc2ccc(C(=O)O)cc2)NC(=O)[C@H](Cc2cnc[nH]2)NC(=O)CSC[C@@H](C(=O)N[C@@H](CCN)C(=O)NCCOCCOCC(=O)N[C@@H](CCC(=O)NCCOCCOCC(=O)NCCCCCCCCCCCCCCC(=O)O)C(=O)O)NC(=O)[C@H](CCC(=O)O)NC(=O)[C@H](C(C)(C)O)NC(=O)[C@H](CC2CCCCC2)NC(=O)[C@H](CCN)NC(=O)[C@@H](CC(C)C)NC(=O)[C@H](C)N(C)C1=O` (stereo partly drawn) [Example 2635] ({CH2CO}-H[Phe(4-COOH)]DWV[Bip][Ile(3ξ)][NMeA][dL][Dab][Cha][Val(3-OH)]EC[Dab][AEEA][γGlu][AEEA]-{NH(CH2)14COOH}; thioether N-14), the concentration for half-maximal inhibition (IC50) was found to be 0.105 µM.
With `CC(C)C[C@H]1NC(=O)[C@H](C)N(C)C(=O)[C@H](Cc2ccc(C(=O)O)cc2)NC(=O)[C@H](Cc2ccc(-c3ccccc3)cc2)NC(=O)[C@H](Cc2ccc(OCC(=O)O)cc2)NC(=O)[C@H](Cc2cccc(C(F)(F)F)c2)NC(=O)[C@H](CC(=O)O)NC(=O)[C@H](Cc2ccc(OCC(=O)O)cc2)NC(=O)[C@H](Cc2cccs2)NC(=O)CSC[C@@H](C(=O)N[C@@H](CCN)C(=O)NCCCCCCCCCCCCC(=O)O)NC(=O)[C@H](Cc2cnc[nH]2)NC(=O)[C@H](C(C)(C)O)NC(=O)[C@H](CC2CCCCC2)NC(=O)[C@H](CCN)NC1=O` [Example 2636] ({CH2CO}-[2Thi]Y(Carboxymethyl)D[Phe(3-CF3)]Y(Carboxymethyl)[Bip][Phe(4-COOH)][NMeA][dL][Dab][Cha][Val(3-OH)]HC[Dab]-{NH(CH2)12COOH}; thioether N-14), the IC50 was found to be 0.136 µM.
For the compound `CC(=O)NCCCC[C@@H]1NC(=O)[C@H](C(C)(C)O)NC(=O)[C@H](CC2CCCCC2)NC(=O)[C@H](CCN)NC(=O)[C@@H](CC(C)C)NC(=O)[C@H](C)N(C)C(=O)[C@H](CCC(N)=O)NC(=O)[C@H](Cc2ccc(-c3ccccc3)cc2)NC(=O)[C@H](Cc2ccc(C(=O)O)cc2)NC(=O)[C@H](Cc2cccc(C(F)(F)F)c2)NC(=O)[C@H](CC(=O)O)NC(=O)[C@H](Cc2ccc(OCC(=O)O)cc2)NC(=O)[C@H](Cc2ccc(OCC(=O)O)cc2)CC(=O)CSC[C@@H](C(=O)N[C@@H](CCN)C(=O)NCCOCCOCC(=O)N[C@@H](CC(=O)NCCCCCCCCCCCCCCC(N)=O)C(=O)O)NC1=O` [Example 2637] (Y(Carboxymethyl)D[Phe(3-CF3)][Phe(4-COOH)][Bip]Q[NMeA][dL][Dab][Cha][Val(3-OH)]K(Ac)C[Dab][AEEA]D(X9)-OH; linker N-13 via X10), the concentration for half-maximal inhibition (IC50) was found to be 0.0242 µM.
